From patent publication EP1960783B1, “REDUCTION OF NON-SPECIFIC BINDING IN ASSAYS” (Siemens Healthcare Diagnostics Inc., priority 2005, dated 2007)

Assay: Blocking of non-specific binding by candidate blocker additives in the LOCI assay for CTNI (troponin) on the VISTA analyzer
Settings: for % supression*: NSB 1 sample vs PBS control
Description: Samples from a local blood bank were screened to determine if they produced a response with the troponin assay. Any donor sample that produced a positive result with the troponin test was assumed to be a false positive. This was confirmed by testing all samples that gave positive responses with at least one commercially available reference method. For the results reported here, the test results were confirmed using the Dade Behring DIMENSION Rxl® troponin (CTNI) test. The false positive samples were further screened for known causes of false positivity. The primary root cause of false positive results is human antibodies that bind mouse antibodies, an interference known as "HAMA" (Human Anti-Mouse Antibodies). The screening process used to determine if samples have HAMA interference consists of adding known HAMA binders (also known as blocking agents) that are available commercially from Roche and Scantibodies. If a sample that gives a positive response becomes normal when HAMA binders are added to the sample, the sample is assumed to be a false positive due to HAMA. Some samples were not corrected by the addition of HAMA binders. These were used in the testing described in the following examples.
An assay for CTNI, described in "Quantitation of Cardiac Markers by LOCI™ Technology", R. Bauer, et al., (Clinical Chemistry 2004; 50(6 supplement): A5) was used for evaluation of the candidate blocker compounds. The reagents for doing this assay consist of an antibody coated acceptor latex (acceptor bead) that emits light when contacted by singlet oxygen, a biotinylated antibody, and a streptavidin coated donor latex that produces singlet oxygen when illuminated by light of wavelengths that are absorbed by a photosensitizer dye dissolved in the latex particles. The streptavidin of the donor latex was bound to the latex particles through a spacer of dextran with aldehyde linking groups. In the case of the acceptor beads, the antibody was connected to the particles through a linking group or spacer that results from a combination of aminodextran and dextranaldehyde. For both latex reagents, the excess aldehyde groups remaining after linkage of the proteins are reacted with carboxymethoxyamine to quench the aldehydes.
These reagents are packaged in FLEX® containers that serve as reservoirs for the VISTA™ automated clinical analyzer that is described in "Development and Initial Performance of a New High-Volume Multi-Detector Analyzer: The DIMENSION VISTA™ Integrated System", T. Evers, et al. (Clinical Chemistry 2004; 50(6 supplement)) A31. The test kits and the analyzer are available from Dade Behring Inc., Newark, DE, USA. Candidate blocking reagents (soluble protein-polysaccharide conjugates (preformed or formed in situ) that reduce or eliminate interference from sample components) were tested by adding them (or a precursor such as, e.g., dextran aldehyde) to the biotinylated antibody reagent in prototype FLEX® containers or in some cases directly to the sample. FLEX® containers are from Dade Behring Inc.
Each test result shown in the tables below is the average of four test results. In general, the precision of the measurements was <2% CV for calibrators and for measurements of discrepant samples in those cases where effective blockers were used. The testing was done on different days with different instruments, so many control tests were needed to enable comparison of different sets of data.
Dextranaldehyde reacts with proteins to form Schiff's bases between the aldehyde functionality and the lysine amino groups of proteins thereby producing a conjugate. This reaction was accomplished by adding 5 mg/mL 500 kDa dextranaldehyde to the biotinylated antibody reagent of the CTNI FLEX® container, which contains 50 mg/mL of BSA in a pH 7.2 HEPES buffer with 1mg/mL 100-200 KDa dextran. […]

[1] = Table 5 Run 1, additive 5 mg/mL in biotinylated antibody reagent
[2] = Table 5 Run 2, additive 5 mg/mL in biotinylated antibody reagent
[3] = Table 4, additive 1 mg/mL added to sample
[4] = Table 4, additive 1 mg/mL added to calibrators and sample, held half an hour before testing

## 100-200-Dexal-BSA-50, second lot: 100-200 kDa dextranaldehyde conjugated with BSA, 100 parts to 50 parts
[1]
  % supression*: 100.00%
  Test Result Counts Cal 0: 7,136 Counts
  Test Result Counts Cal 8: 807,327 Counts
  Test Result Counts NSB 1: 7,134 Counts

## 100-200-Dexat-ovalbumin-50: 100-200 kDa dextranaldehyde conjugated with ovalbumin, 100 parts to 50 parts
[2]
  % supression*: 99.26%
  Test Result Counts Cal 0: 6,573 Counts
  Test Result Counts Cal 8: 749,661 Counts
  Test Result Counts NSB 1: 12,630 Counts

## 100-200-Dexal-BSA-30: dextranaldehyde prepared from 100-200 kDa dextran conjugated with BSA at 100 parts dextranaldehyde to 30 parts BSA
[3]
  % supression*: 99.7%
[4]
  Test Result Counts Cal 0: 8,460 Counts
  Test Result Counts Cal 8: 969,563 Counts
  Test Result Counts NSB 1: 11,242 Counts

## 100-200-Dexal-BSA-10: dextranaldehyde from 100-200 kDa dextran conjugated with BSA, 100 parts dextranaldehyde to 10 parts BSA
[3]
  % supression*: 98.2%
[4]
  Test Result Counts Cal 0: 8,389 Counts
  Test Result Counts Cal 8: 954,766 Counts
  Test Result Counts NSB 1: 26,160 Counts

## BSA conjugate formed in situ: conjugate formed by adding 5 mg/mL 500 kDa dextranaldehyde to reagent containing 50 mg/mL BSA
Summary in words of Table 2, discrepant samples NSB 1-29
  blocking the nonspecific binding: nearly bringing the falsely elevated results to the same level as the zero calibrator
Summary in words of Table 7, compared with the carboxymethyloxime derivative of dexal
  blocking the interference: significantly more effective

## 100-200-Dexal-BSA-50, first lot: 100-200 kDa dextranaldehyde conjugated with BSA, 100 parts to 50 parts
[1]
  % supression*: 99.95%
  Test Result Counts Cal 0: 6,578 Counts
  Test Result Counts Cal 8: 743,213 Counts
  Test Result Counts NSB 1: 7,005 Counts

## 100-200-Dexal-BSA-100: 100-200 kDa dextranaldehyde conjugated with BSA, 100 parts to 100 parts
[1]
  % supression*: 99.97%
  Test Result Counts Cal 0: 7,320 Counts
  Test Result Counts Cal 8: 823,386 Counts
  Test Result Counts NSB 1: 7,544 Counts

## 100-200-Dexal-ovalbumin-100: 100-200 kDa dextranaldehyde conjugated with ovalbumin, 100 parts to 100 parts
[2]
  % supression*: 95.93%
  Test Result Counts Cal 0: 6,370 Counts
  Test Result Counts Cal 8: 734,218 Counts
  Test Result Counts NSB 1: 39,569 Counts
